According to PubChem BioAssay (NCI):
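Values below derive from 48-hour exposures of cells grown in 96-well plates, with endpoints linearly interpolated between the two concentrations bracketing the appropriate inhibition level. TGI denotes the concentration required for complete inhibition of growth.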

Experiments:
Assay in all cases: growth of human tumour cells (NCI), 48 h
[1] = tested on: HOP-92 NSCLC
[2] = tested on: PC-3 prostate
[3] = tested on: SW-620 colon
[4] = tested on: T-47D breast
[5] = tested on: MDA-MB-435
[6] = tested on: A549 NSCLC
[7] = tested on: 786-0 renal
[8] = tested on: HS 578T breast
[9] = tested on: OVCAR-5 ovarian
[10] = tested on: NCI-H460 lung
[11] = tested on: RPMI-8226 leukemia
[12] = tested on: TK-10 renal
[13] = tested on: HT29 colon
[14] = tested on: UACC-62 melanoma
[15] = tested on: COLO 205 colon
[16] = tested on: HOP-62 NSCLC
[17] = tested on: HCT-116 colon
[18] = tested on: SK-MEL-2 melanoma
[19] = tested on: OVCAR-8 ovarian
[20] = tested on: MCF7 breast
[21] = tested on: SK-OV-3 ovarian
[22] = tested on: EKVX NSCLC
[23] = tested on: UACC-257 melanoma
[24] = tested on: HCT-15 colon
[25] = tested on: SNB-75 CNS
[26] = tested on: SNB-19 CNS
[27] = tested on: NCI-H522 lung
[28] = tested on: DU-145 prostate
[29] = tested on: RXF 393 renal
[30] = tested on: SF-295 CNS
[31] = tested on: BT-549 breast
[32] = tested on: ACHN renal
[33] = tested on: SN12C renal
[34] = tested on: CAKI-1 renal
[35] = tested on: K-562 leukemia
[36] = tested on: U251 CNS
[37] = tested on: SK-MEL-5 melanoma
[38] = tested on: HCC-2998 colon
[39] = tested on: MDA-N
[40] = tested on: IGROV1 ovarian
[41] = tested on: MOLT-4 leukemia
[42] = tested on: M14 melanoma
[43] = tested on: SF-539 CNS
[44] = tested on: SF-268 CNS
[45] = tested on: OVCAR-4 ovarian
[46] = tested on: MDA-MB-231 breast
[47] = tested on: A498 renal
[48] = tested on: SK-MEL-28 melanoma
[49] = tested on: UO-31 renal
[50] = tested on: NCI-H23 lung
[51] = tested on: NCI-H226 lung

## C#CCCCCC#Cc1ccccc1C(=O)C=[N+]=[N-]
[1]
  TGI: > 100 µM
[2]
  TGI: > 100 µM
[3]
  TGI: > 100 µM
[4]
  TGI: > 100 µM
[5]
  TGI: > 100 µM
[6]
  TGI: > 100 µM
[7]
  TGI: > 100 µM
[8]
  TGI: > 100 µM
[9]
  TGI: > 100 µM
[10]
  TGI: > 100 µM
[11]
  TGI: > 100 µM
[12]
  TGI: > 100 µM
[13]
  TGI: > 100 µM
[14]
  TGI: > 100 µM
[15]
  TGI: > 100 µM
[16]
  TGI: > 100 µM
[17]
  TGI: > 100 µM
[18]
  TGI: > 100 µM
[19]
  TGI: > 100 µM
[20]
  TGI: > 100 µM
[21]
  TGI: > 100 µM
[22]
  TGI: > 100 µM
[23]
  TGI: > 100 µM
[24]
  TGI: > 100 µM
[25]
  TGI: > 100 µM
[26]
  TGI: > 100 µM
[27]
  TGI: > 100 µM
[28]
  TGI: > 100 µM
[29]
  TGI: > 100 µM
[30]
  TGI: > 100 µM
[31]
  TGI: > 100 µM
[32]
  TGI: > 100 µM
[33]
  TGI: > 100 µM
[34]
  TGI: > 100 µM
[35]
  TGI: > 100 µM
[36]
  TGI: > 100 µM
[37]
  TGI: > 100 µM
[38]
  TGI: > 100 µM
[39]
  TGI: > 100 µM
[40]
  TGI: > 100 µM
[41]
  TGI: > 100 µM
[42]
  TGI: > 100 µM
[43]
  TGI: > 100 µM
[44]
  TGI: > 100 µM
[45]
  TGI: > 100 µM
[46]
  TGI: > 100 µM
[47]
  TGI: > 100 µM
[48]
  TGI: > 100 µM
[49]
  TGI: > 100 µM
[50]
  TGI: > 100 µM
[51]
  TGI: > 100 µM

## COc1ccc(/C=C/c2cc(OC)c(OC)c(OC)c2)cc1O[Si](C)(C)C(C)(C)C
[1]
  TGI: 85.4 µM
[2]
  TGI: > 100 µM
[3]
  TGI: 17.3 µM
[4]
  TGI: > 100 µM
[5]
  TGI: 5.86 µM
[6]
  TGI: > 100 µM
[7]
  TGI: 30.7 µM
[8]
  TGI: 8.18 µM
[9]
  TGI: > 100 µM
[10]
  TGI: 13.4 µM
[11]
  TGI: 3.68 µM
[12]
  TGI: > 100 µM
[13]
  TGI: > 100 µM
[14]
  TGI: 14.1 µM
[15]
  TGI: 32.7 µM
[16]
  TGI: > 100 µM
[17]
  TGI: 14.2 µM
[18]
  TGI: > 100 µM
[19]
  TGI: 10.8 µM
[20]
  TGI: 25.6 µM
[21]
  TGI: > 100 µM
[22]
  TGI: > 100 µM
[23]
  TGI: 37.3 µM
[24]
  TGI: 21.7 µM
[25]
  TGI: > 100 µM
[26]
  TGI: > 100 µM
[27]
  TGI: 8.08 µM
[28]
  TGI: > 100 µM
[29]
  TGI: 9.02 µM
[30]
  TGI: 83.8 µM
[31]
  TGI: 64 µM
[32]
  TGI: 34 µM
[33]
  TGI: 74.5 µM
[34]
  TGI: > 100 µM
[36]
  TGI: 26.6 µM
[37]
  TGI: 4.44 µM
[38]
  TGI: > 100 µM
[39]
  TGI: 6.25 µM
[40]
  TGI: > 100 µM
[41]
  TGI: 22.2 µM
[42]
  TGI: 29.3 µM
[43]
  TGI: 5.71 µM
[44]
  TGI: > 100 µM
[45]
  TGI: > 100 µM
[46]
  TGI: > 100 µM
[47]
  TGI: 94.1 µM
[48]
  TGI: > 100 µM
[49]
  TGI: > 100 µM
[50]
  TGI: > 100 µM
[51]
  TGI: 47.7 µM
